Reference: ChEMBL document CHEMBL1201862, “PubChem BioAssay data set” (2004)
Calls of active or inactive are those of the source. Cut-off read from the data, not from the text of the source, for most assays here: actives have a measured EC50 and inactives only a lower limit.

Assays:
[1] = Luminescence Cell-Based Dose Response HTS to Identify Activators of Luciferase Translation or Activity in H4 […] Cells. [Related pubchem assays: 1829 (Project Summary), 1814 (Primary HTS)]; type: functional
[2] = Luminescence Cell-Based Dose Confirmation HTS to Identify Activators of 5'UTR Stem-Loop Driven Alpha-Synuclein mRNA Translation in H4 Neuroglioblastoma Cells. [Related pubchem assays: 1829 (Project Summary), 1814 (Primary HTS)]; type: functional
H4 = experiment: Luminescence Cell-Based Dose Response HTS to Identify Activators of 5'UTR Stem-Loop Driven Prion Protein mRNA Translation in H4 Neuroglioblastoma Cells. [Related pubchem assays: 1829 (Project Summary), 1814 (Primary HTS)]; type: functional; conditions: Homo sapiens
cells = type: functional
[3] = molecular target: T1, Calpain-2 catalytic subunit (Sus scrofa, UniProt P43367); experiment: m-calpain protease blockers, concentration series – biochemical, fluorogenic peptide substrate, dose response (AID 1420); type: functional
T1 sequence (P43367 whole entry): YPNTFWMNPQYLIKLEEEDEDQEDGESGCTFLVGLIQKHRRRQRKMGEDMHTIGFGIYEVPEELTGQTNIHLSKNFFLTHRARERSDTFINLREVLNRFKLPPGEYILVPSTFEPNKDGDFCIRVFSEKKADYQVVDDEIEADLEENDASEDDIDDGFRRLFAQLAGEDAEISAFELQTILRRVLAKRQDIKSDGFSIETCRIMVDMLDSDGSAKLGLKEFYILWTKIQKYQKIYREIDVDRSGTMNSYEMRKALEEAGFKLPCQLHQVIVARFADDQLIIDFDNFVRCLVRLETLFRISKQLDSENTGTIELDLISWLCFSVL

[4] = Luminescence Cell-Based Dose Retest to Confirm Inhibitors of Cancer Stem Cells. [Related pubchem assays (depositor defined):AID2717, AID2721]; type: functional; conditions: Homo sapiens
[5] = NIH-3T3 fibroblast cytotoxicity, dose response, cytotoxicity control, cell-based, fluorescence, Alamar Blue, secondary assay (AID 2327); type: functional;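 note: NIH-3T3 mouse fibroblasts cultured with fluconazole at 8 µg/mL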
[6] = fluconazole-exposed Candida albicans growth modulators – fluorescence, retest, confirmation (AID 2467); type: functional, cell-based
[7] = viability of uninfected HEp-2 cells – cell-based, HTS, cytotoxicity control for RSV inhibitor project, dose response (AID 2410); type: functional; conditions: human respiratory syncytial virus
BJ [8] = experiment: cells; type: functional, cell-based; conditions: Homo sapiens
[9] = DRD fibroblast viability loss – cell-based, non-viral oncogenic, luminescence, dose response (AID 1934); type: functional; conditions: Homo sapiens
BJ [10] = experiment: BJ-TERT-LT-ST fibroblast viability loss – cell-based, RAS-independent, luminescence, dose response (AID 1935); type: functional; conditions: Homo sapiens;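 note: BJ fibroblasts immortalized with TERT plus LT and ST oncogenes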
BJ [11] = experiment: BJ-TERT fibroblast viability loss – cell-based, RAS-independent, luminescence, dose response (AID 1933); type: functional; conditions: Homo sapiens
Paired box protein Pax-8 = Paired box protein Pax-8 (Homo sapiens, UniProt Q06710); experiment: PAX8 transcriptional activity inhibition in RMG-I – RMG-I cells, luciferase, cherry-pick, dose response (AID 687027); type: functional, cell-based;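 note: luciferase reporter driven by Pax8 target thyroperoxidase promoter measured by SteadyGlo luminescence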
Sequence of Paired box protein Pax-8 (Q06710 whole entry): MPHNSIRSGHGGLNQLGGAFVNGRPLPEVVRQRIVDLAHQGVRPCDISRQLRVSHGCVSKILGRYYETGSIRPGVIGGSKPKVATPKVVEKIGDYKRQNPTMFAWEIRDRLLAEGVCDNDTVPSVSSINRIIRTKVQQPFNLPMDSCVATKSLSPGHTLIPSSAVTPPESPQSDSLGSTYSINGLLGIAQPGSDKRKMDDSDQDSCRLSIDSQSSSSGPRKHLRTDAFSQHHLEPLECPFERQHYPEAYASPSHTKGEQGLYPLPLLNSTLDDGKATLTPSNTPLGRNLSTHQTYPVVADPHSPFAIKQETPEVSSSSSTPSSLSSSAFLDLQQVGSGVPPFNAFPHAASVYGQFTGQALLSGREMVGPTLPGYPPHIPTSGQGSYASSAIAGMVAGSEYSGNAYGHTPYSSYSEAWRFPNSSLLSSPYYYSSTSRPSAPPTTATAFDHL

For `Cc1cc(C)nc(Nc2n[nH]c(-c3ccccc3Cl)n2)n1`, the EC50 [1] was 19.8 µM (active), the EC50 [2] was 12.3 µM (active) and the EC50 (H4) was 52.7 µM (inconclusive).

For `CCCCOC(=O)C1CCCC(C(=O)OCCCC)N1` (centres undefined), the IC50 (cells) was 16.6 µM (active).

For `CC(OC(=O)c1ccccc1Nc1ccc(SC(F)F)cc1)C(N)=O` (centres undefined), the IC50 [3] was 12 µM (not active).

In the case of `COCc1nc(-c2ccc(-c3ccc(C)cc3)nc2OC)no1`, the EC50 [1] is reported as 76 µM (active), the EC50 [2] is reported as > 120 µM (not active) and the EC50 (H4) is reported as 14.2 µM (active).

For `Cc1ccc(-c2ccc([C@H]3[C@@H]4C=CCC[C@@]4(C)C(=O)N3Cc3ccccc3)c(F)c2)cc1`, the IC50 [3] was 3.65 µM (not active) and the AC50 [4] was 3.55 µM (active).

With `O=C(O)/C=C/c1ccc(S(=O)(=O)Nc2ccc(C(=O)NCC(=O)O)cc2)cc1` the EC50 [5] was > 160 µM (inconclusive) and the EC50 [6] was > 38 µM (not active).

In the case of `CCn1c(=O)[nH]c2ccccc2/c1=N/C(=O)c1ccc(F)cc1`, the CC50 [7] is reported as 28 µM (active).

For `CCOc1ccc(NC(=O)C(c2ccccn2)N(C(=O)CCl)c2ccc(OC)cc2)cc1` (centres undefined), the EC50 (BJ [8]) was > 150 µM (not active), the EC50 [9] was > 150 µM (not active) and the EC50 (BJ [10]) was > 150 µM (inconclusive). For the same compound, the EC50 (BJ [11]) was > 150 µM (not active).

With `Cc1ccccc1N1CCN(Cc2ccc([N+](=O)[O-])o2)CC1` the IC50 (cells) was 0.73 µM (active).

In the case of `COc1cc(/C=C2/SC(=S)N(CC(=O)Nc3cccnc3)C2=O)cc(OC)c1OC`, the EC50 (BJ [8]) is reported as > 150 µM (not active), the EC50 [9] is reported as > 150 µM (not active) and the EC50 (BJ [10]) is reported as > 150 µM (inconclusive). For the same compound, the EC50 (BJ [11]) was > 150 µM (not active).

For `O=C(Oc1ccccc1)c1cc2ccccc2o1`, the IC50 (cells) was 18.4 µM (active).

For `COc1ccc(C(=O)CCc2ccccc2O)c(OC)c1`, the CC50 [7] was 41.8 µM (active).

In the case of `O=C1C[N+]([O-])=Cc2[nH]c3ccccc3c2N1c1ccc([N+](=O)[O-])cc1`, the IC50 [3] is reported as 4.76 µM (not active).

In the case of `CCOc1ccc2nc(NC(=O)CSc3nc(SC)ns3)sc2c1`, the EC50 [1] is reported as 8.43 µM (active), the EC50 [2] is reported as 12.7 µM (active) and the EC50 (H4) is reported as 47.5 µM (active).

In the case of `O=C1C(Cl)=C(NCCCN2CCOCC2)C(=O)N1CCc1ccccc1`, the EC50 [1] is reported as 15.3 µM (active), the EC50 [2] is reported as 6.1 µM (active) and the EC50 (H4) is reported as 45.1 µM (active).

In the case of `Cc1cc(C(=O)OCC(=O)N2CCc3ccccc32)c(C)o1`, the EC50 [1] is reported as 21.6 µM (active), the EC50 [2] is reported as 5.44 µM (active) and the EC50 (H4) is reported as 13.4 µM (active).

In the case of `Cc1ccc(-c2csc(/C=C3\SC(C)C(=O)N3CC(=O)Nc3ccccc3F)n2)cc1` (centres undefined), the IC50 [3] is reported as 10.6 µM (active).

With `O=C(CC1CC2CCC1C2)OCC(=O)c1c[nH]c2ccccc12` (centres undefined) the IC50 [3] was 27.5 µM (not active).

For `CCCOc1cccc(-c2nnc(NC(=O)c3ccco3)s2)c1`, the EC50 [5] was 15.9 µM (active) and the EC50 [6] was 1.91 µM (active).

In the case of `Cc1ccc(S(=O)(=O)NC(=Nc2ccccn2)c2ccc(Cl)cc2)cc1`, the EC50 [1] is reported as 34.8 µM (active), the EC50 [2] is reported as > 120 µM (not active) and the EC50 (H4) is reported as > 120 µM (not active).

With `CNc1nccc(-c2ccc(F)cc2)c1C#N` the CC50 [7] was 47.5 µM (active).

For `COc1ccc(S(=O)(=O)Oc2cccc(/C=N/NC3=NC(=O)C(CC(=O)O)S3)c2)cc1` (centres undefined), the IC50 [3] was > 50 µM (not active).

For `C/C(=N\NC(=O)c1c(Cl)cnn1C)c1ccc(NC(=O)c2ccc(Br)o2)cc1`, the EC50 [1] was 6.56 µM (active), the EC50 [2] was 6.11 µM (active) and the EC50 (H4) was 28.4 µM (active).

With `CN1C(=O)/C(=C\C(=O)c2cccs2)c2ccccc21` the AC50 (Paired box protein Pax-8) was 23.1 µM (active), the EC50 [5] was > 150 µM (inconclusive) and the EC50 [6] was > 38 µM (not active).
